{
  "source": "ChEMBL document CHEMBL1687845",
  "about": "“Carotenoid-related alteration of cell membrane fluidity impacts Staphylococcus aureus susceptibility to host defense peptides” (2011)",
  "key": {"Staphylococcus aureus [1]": {"system": "Staphylococcus aureus", "assay": "Antibacterial activity against wild type methicillin-susceptible Staphylococcus aureus SA144 by Etest", "type": "functional"}, "Staphylococcus aureus [2]": {"system": "Staphylococcus aureus", "assay": "Antibacterial activity against methicillin-susceptible Staphylococcus aureus SA145 harboring crtM deletion mutant by Etest", "type": "functional"}, "Staphylococcus aureus [3]": {"system": "Staphylococcus aureus", "assay": "Antibacterial activity against methicillin-susceptible Staphylococcus aureus SA146 harboring deltacrtM-pDCerm by Etest", "type": "functional"}, "Staphylococcus aureus [4]": {"system": "Staphylococcus aureus", "assay": "Antibacterial activity against methicillin-susceptible Staphylococcus aureus SA147 harboring deltacrtM-pDCerm::crtMN by Etest", "type": "functional"}, "Staphylococcus aureus [5]": {"system": "Staphylococcus aureus", "assay": "Ratio of MIC for methicillin-susceptible Staphylococcus aureus SA147 harboring deltacrtM-pDCerm::crtMN to MIC for wild type methicillin-susceptible Staphylococcus aureus SA144", "type": "functional"}, "Staphylococcus aureus [6]": {"system": "Staphylococcus aureus", "assay": "Antibacterial activity against wild type methicillin-susceptible Staphylococcus aureus SA144 assessed as bacterial survival at 1.25 ug/ml after 2 hrs", "type": "functional", "conditions": "SA144, 2 h"}, "Staphylococcus aureus [7]": {"system": "Staphylococcus aureus", "assay": "Antibacterial activity against wild type methicillin-susceptible Staphylococcus aureus SA144 assessed as bacterial survival at 0.625 ug/ml after 2 hrs", "type": "functional", "conditions": "SA144, 2 h"}, "Staphylococcus aureus [8]": {"system": "Staphylococcus aureus", "assay": "Antibacterial activity against methicillin-susceptible Staphylococcus aureus SA145 harboring crtM deletion mutant assessed as bacterial survival at 1.25 ug/ml after 2 hrs", "type": "functional", "conditions": "SA145, 2 h"}, "Staphylococcus aureus [9]": {"system": "Staphylococcus aureus", "assay": "Antibacterial activity against methicillin-susceptible Staphylococcus aureus SA145 harboring crtM deletion mutant assessed as bacterial survival at 0.625 ug/ml after 2 hrs", "type": "functional", "conditions": "SA145, 2 h"}, "Staphylococcus aureus [10]": {"system": "Staphylococcus aureus", "assay": "Antibacterial activity against methicillin-susceptible Staphylococcus aureus SA147 harboring deltacrtM-pDCerm::crtMN assessed as bacterial survival at 1.25 ug/ml after 2 hrs", "type": "functional", "conditions": "SA147, 2 h"}, "Staphylococcus aureus [11]": {"system": "Staphylococcus aureus", "assay": "Antibacterial activity against methicillin-susceptible Staphylococcus aureus SA147 harboring deltacrtM-pDCerm::crtMN assessed as bacterial survival at 0.625 ug/ml after 2 hrs", "type": "functional", "conditions": "SA147, 2 h"}, "Staphylococcus aureus [12]": {"system": "Staphylococcus aureus", "assay": "Antibacterial activity against wild type methicillin-susceptible Staphylococcus aureus SA144 assessed as bacterial survival at 5 ug/ml after 2 hrs", "type": "functional", "conditions": "SA144, 2 h"}, "Staphylococcus aureus [13]": {"system": "Staphylococcus aureus", "assay": "Antibacterial activity against wild type methicillin-susceptible Staphylococcus aureus SA144 assessed as bacterial survival at 2.5 ug/ml after 2 hrs", "type": "functional", "conditions": "SA144, 2 h"}, "Staphylococcus aureus [14]": {"system": "Staphylococcus aureus", "assay": "Antibacterial activity against methicillin-susceptible Staphylococcus aureus SA145 harboring crtM deletion mutant assessed as bacterial survival at 5 ug/ml after 2 hrs", "type": "functional", "conditions": "SA145, 2 h"}, "Staphylococcus aureus [15]": {"system": "Staphylococcus aureus", "assay": "Antibacterial activity against methicillin-susceptible Staphylococcus aureus SA145 harboring crtM deletion mutant assessed as bacterial survival at 2.5 ug/ml after 2 hrs", "type": "functional", "conditions": "SA145, 2 h"}, "Staphylococcus aureus [16]": {"system": "Staphylococcus aureus", "assay": "Antibacterial activity against methicillin-susceptible Staphylococcus aureus SA147 harboring deltacrtM-pDCerm::crtMN assessed as bacterial survival at 5 ug/ml after 2 hrs", "type": "functional", "conditions": "SA147, 2 h"}, "Staphylococcus aureus [17]": {"system": "Staphylococcus aureus", "assay": "Antibacterial activity against methicillin-susceptible Staphylococcus aureus SA147 harboring deltacrtM-pDCerm::crtMN assessed as bacterial survival at 2.5 ug/ml after 2 hrs", "type": "functional", "conditions": "SA147, 2 h"}, "Staphylococcus aureus [18]": {"system": "Staphylococcus aureus", "assay": "Antibacterial activity against wild type methicillin-susceptible Staphylococcus aureus SA144 assessed as bacterial survival at 80 ug/ml after 2 hrs", "type": "functional, organism-based"}, "Staphylococcus aureus [19]": {"system": "Staphylococcus aureus", "assay": "Antibacterial activity against wild type methicillin-susceptible Staphylococcus aureus SA144 assessed as bacterial survival at 40 ug/ml after 2 hrs", "type": "functional, organism-based"}, "Staphylococcus aureus [20]": {"system": "Staphylococcus aureus", "assay": "Antibacterial activity against methicillin-susceptible Staphylococcus aureus SA145 harboring crtM deletion mutant assessed as bacterial survival at 80 ug/ml after 2 hrs", "type": "functional, organism-based"}, "Staphylococcus aureus [21]": {"system": "Staphylococcus aureus", "assay": "Antibacterial activity against methicillin-susceptible Staphylococcus aureus SA145 harboring crtM deletion mutant assessed as bacterial survival at 40 ug/ml after 2 hrs", "type": "functional, organism-based"}, "Staphylococcus aureus [22]": {"system": "Staphylococcus aureus", "assay": "Antibacterial activity against methicillin-susceptible Staphylococcus aureus SA147 harboring deltacrtM-pDCerm::crtMN assessed as bacterial survival at 80 ug/ml after 2 hrs", "type": "functional, organism-based"}, "Staphylococcus aureus [23]": {"system": "Staphylococcus aureus", "assay": "Antibacterial activity against methicillin-susceptible Staphylococcus aureus SA147 harboring deltacrtM-pDCerm::crtMN assessed as bacterial survival at 40 ug/ml after 2 hrs", "type": "functional, organism-based"}},
  "data": [
    {"molecule": "CCCCCCCCCC(=O)N[C@@H](Cc1c[nH]c2ccccc12)C(=O)N[C@H](CC(N)=O)C(=O)N[C@@H](CC(=O)O)C(=O)N[C@@H]1C(=O)NCC(=O)N[C@@H](CCCN)C(=O)N[C@@H](CC(=O)O)C(=O)N[C@H](C)C(=O)N[C@@H](CC(=O)O)C(=O)NCC(=O)N[C@H](CO)C(=O)N[C@@H]([C@H](C)CC(=O)O)C(=O)N[C@@H](CC(=O)c2ccccc2N)C(=O)O[C@@H]1C", "values": [
      {"measurement": "MIC", "setting": "Staphylococcus aureus [1]", "result": 0.75, "unit": "µg/mL"},
      {"measurement": "MIC", "setting": "Staphylococcus aureus [2]", "result": 0.75, "unit": "µg/mL"},
      {"measurement": "MIC", "setting": "Staphylococcus aureus [3]", "result": 0.75, "unit": "µg/mL"},
      {"measurement": "MIC", "setting": "Staphylococcus aureus [4]", "result": 1.5, "unit": "µg/mL"},
      {"measurement": "Ratio", "setting": "Staphylococcus aureus [5]", "result": 2},
      {"measurement": "survival at 1.25 µg/mL", "setting": "Staphylococcus aureus [6]", "result": 12, "unit": "%"},
      {"measurement": "survival at 0.625 µg/mL", "setting": "Staphylococcus aureus [7]", "result": 18, "unit": "%"},
      {"measurement": "survival at 1.25 µg/mL", "setting": "Staphylococcus aureus [8]", "result": 21, "unit": "%"},
      {"measurement": "survival at 0.625 µg/mL", "setting": "Staphylococcus aureus [9]", "result": 24, "unit": "%"},
      {"measurement": "survival at 1.25 µg/mL", "setting": "Staphylococcus aureus [10]", "result": 49, "unit": "%"},
      {"measurement": "survival at 0.625 µg/mL", "setting": "Staphylococcus aureus [11]", "result": 55, "unit": "%"}
    ]},
    {"molecule": "H-ALYKKFKKKLLKSLKRLG-OH", "values": [
      {"measurement": "survival at 5 µg/mL", "setting": "Staphylococcus aureus [12]", "result": 11, "unit": "%"},
      {"measurement": "survival at 2.5 µg/mL", "setting": "Staphylococcus aureus [13]", "result": 23, "unit": "%"},
      {"measurement": "survival at 5 µg/mL", "setting": "Staphylococcus aureus [14]", "result": 13, "unit": "%"},
      {"measurement": "survival at 2.5 µg/mL", "setting": "Staphylococcus aureus [15]", "result": 18, "unit": "%"},
      {"measurement": "survival at 5 µg/mL", "setting": "Staphylococcus aureus [16]", "result": 23, "unit": "%"},
      {"measurement": "survival at 2.5 µg/mL", "setting": "Staphylococcus aureus [17]", "result": 55, "unit": "%"}
    ]},
    {"molecule": "POLYMYXIN B", "values": [
      {"measurement": "Survival", "setting": "Staphylococcus aureus [18]", "result": 13, "unit": "%"},
      {"measurement": "Survival", "setting": "Staphylococcus aureus [19]", "result": 29, "unit": "%"},
      {"measurement": "Survival", "setting": "Staphylococcus aureus [20]", "result": 14, "unit": "%"},
      {"measurement": "Survival", "setting": "Staphylococcus aureus [21]", "result": 23, "unit": "%"},
      {"measurement": "Survival", "setting": "Staphylococcus aureus [22]", "result": 26, "unit": "%"},
      {"measurement": "Survival", "setting": "Staphylococcus aureus [23]", "result": 25, "unit": "%"}
    ]}
  ]
}
